Reference: patent US12570612B2, “Substituted nitrogen heterocyclic compound and anesthetic effect thereof” (priority 2019, dated 2026)

Experiments:
Sprague-Dawley rats = assay: animal or person; settings: for ED50: LORR in rats, tail vein, brackets = 95% confidence limit; for Approximate therapeutic index / Minimal lethal dose: rats
Method: Adult male Sprague-Dawley rats (250-300 g) were selected for the experiment. […] The anesthesia effects of the compounds were assessed in rats using a LORR assay and a period >30 s was considered as an indicator of general anesthesia.

H295R cell line [1] = assay: Adrenocortical function in vitro test: secretion of cortisol and corticosterone, Group B compounds; type: cell-based; settings: H295R cells; for EC50: 0.1-10000 nM, HPLC-MS/MS
H295R cell line [2] = assay: Adrenocortical function in vitro test: secretion of cortisol and corticosterone, Group A compounds; type: cell-based; settings: H295 cells; for EC50: 0.1-10000 nM, HPLC-MS/MS
[3] = read-out: EC50 (Corticosterone)
[4] = Homo sapiens, NCI-H295R, read-out: EC50 (Corticosterone)
[5] = Homo sapiens, NCI-H295R, read-out: EC50 (Cortisol)

SMILES	ED50 (Sprague-Dawley rats)	Approximate therapeutic index (Sprague-Dawley rats)	Minimal lethal dose (Sprague-Dawley rats) [mg/kg]	Corticosterone as an indicator to determine the presence of inhibition (H295R cell line [1])	Cortisol as an indicator to determine the presence of inhibition (H295R cell line [1])	EC50 (H295R cell line [1]; [3]) [µM]	EC50 (H295R cell line [1]; read-out: EC50 (Cortisol)) [µM]	ED50 (Sprague-Dawley rats; Rattus norvegicus) [mg/kg]	EC50 (H295R cell line [1]; [4]) [µM]	EC50 (H295R cell line [1]; [5]) [µM]	Corticosterone as an indicator to determine the presence of inhibition (H295R cell line [2])	Cortisol as an indicator to determine the presence of inhibition (H295R cell line [2])	EC50 (H295R cell line [2]; [3]) [µM]	EC50 (H295R cell line [2]; read-out: EC50 (Cortisol)) [µM]
CC=CC1(OC(=O)c2cnnn2C(C)c2ccccc2)COC1 (mixture of isomers) [Compound B21]	B (B indicates that the measured ED50 is in the range of 0.50-1.00 mg/kg (excluding 0.50 mg/kg, including 1.00 mg/kg))	>11	>8	0	0	> 0.1	> 0.1	–	–	–	–	–	–	–
CCOC(=O)c1cnnn1[C@H](C)c1ccccc1 [Compound B1]	A (A indicates that the measured ED50 is in the range of 0.04-0.50 mg/kg (including 0.04 and 0.50 mg/kg))	>20	>8	0	0	> 0.1	> 0.05	–	–	–	–	–	–	–
C[C@H](c1ccccc1)n1nncc1C(=O)OCC1CC1 [Compound B7]	–	>31	>24	0	0	–	–	0.5 to 1	> 0.1	> 0.1	–	–	–	–
CO[C@H]1C[C@@H](OC(=O)c2cnnn2[C@H](C)c2ccccc2)C1 [Compound B8]	–	>9	>8	0	0	–	–	0.5 to 1	> 1	> 1	–	–	–	–
C=CCOC(=O)c1cnnn1[C@H](C)c1ccccc1 [Compound B10]	–	>16	>11	0	0	–	–	0.5 to 1	> 0.1	> 0.1	–	–	–	–
C=C=CC1(OC(=O)c2cnnn2[C@H](C)c2ccccc2)CCCCC1 [Compound B11]	B (B indicates that the measured ED50 is in the range of 0.50-1.00 mg/kg (excluding 0.50 mg/kg, including 1.00 mg/kg))	>8	>6	0	0	> 1	> 1	–	–	–	–	–	–	–
C=CC(CC)OC(=O)c1cnnn1[C@H](C)c1ccccc1 (some centres unmarked) [Compound B13]	–	>2	>1	0	0	–	–	0.5 to 1	> 1	> 1	–	–	–	–
CC(=O)C1=C(OC(=O)c2cnnn2[C@H](C)c2ccccc2)CCCC1 [Compound B15]	–	>9	>9	0	0	–	–	0.5 to 1	> 1	> 1	–	–	–	–
CC(C)OC(=O)c1cnnn1[C@H](C)c1ccccc1 [Compound B17]	–	>56	>16	0	0	–	–	0.04 to 0.5	> 1	> 1	–	–	–	–
C[C@H](c1ccccc1)n1nncc1C(=O)OC1CC1 [Compound B18]	–	>12	>14	0	0	–	–	1 to 2	> 0.1	> 0.1	–	–	–	–
CC(C)O[C@H]1C[C@@H](OC(=O)c2cnnn2[C@H](C)c2ccccc2)C1 [Compound B26]	–	>10	>12	0	0	–	–	1 to 2	> 0.1	> 0.1	–	–	–	–
COC(=O)C1=C(OC(=O)c2cnnn2[C@H](C)c2ccccc2)CCCC1 [Compound B30]	–	>10	>10	0	0	–	–	0.5 to 1	> 1	> 1	–	–	–	–
C=C=CC1(OC(=O)c2c(F)nnn2[C@H](C)c2ccccc2)COC1 [Compound B35]	–	>29	>8	0	0	–	–	0.04 to 0.5	> 1	> 1	–	–	–	–
COC(=O)C1=C(OC(=O)c2c(F)nnn2[C@H](C)c2ccccc2)CCC1 [Compound B36]	–	>7	>5	0	0	–	–	0.5 to 1	> 1	> 1	–	–	–	–
CO[C@H]1C[C@@H](OC(=O)c2c(F)nnn2[C@H](C)c2ccccc2)C1 [Compound B40]	–	>6	>6	0	0	–	–	0.5 to 1	> 0.1	> 0.1	–	–	–	–
C=CC1(OC(=O)c2c(F)nnn2[C@H](C)c2ccccc2)COC1 [Compound B51]	–	>12	>14	0	0	–	–	1 to 2	> 1	> 1	–	–	–	–
CCOC(=O)c1c(Cl)nnn1[C@H](C)c1ccccc1 [Compound B65]	–	>13	>9	0	0	–	–	0.5 to 1	> 1	> 1	–	–	–	–
C[C@H](c1ccccc1)n1nnc(Cl)c1C(=O)OC1CCC1 [Compound B70]	D (D indicates that the measured ED50 is in the range of 2.00-10.00 mg/kg (excluding 2.00 mg/kg, including 10.00 mg/kg))	>2	>15	0	0	> 1	> 1	–	–	–	–	–	–	–
CCOC(=O)c1c(Br)nnn1[C@H](C)c1ccccc1 [Compound B99]	A (A indicates that the measured ED50 is in the range of 0.04-0.50 mg/kg (including 0.04 and 0.50 mg/kg))	>16	>8	0	0	> 3	> 3	–	–	–	–	–	–	–
C=C=CC1(OC(=O)c2c(Br)nnn2[C@H](C)c2ccccc2)COC1 [Compound B101]	C (C indicates that the measured ED50 is in the range of 1.00-2.00 mg/kg (excluding 1.00 mg/kg, including 2.00 mg/kg))	>7	>13	0	0	> 1	> 1	–	–	–	–	–	–	–
C[C@H](c1ccccc1)n1nnc(Br)c1C(=O)OC1CCC1 [Compound B104]	C (C indicates that the measured ED50 is in the range of 1.00-2.00 mg/kg (excluding 1.00 mg/kg, including 2.00 mg/kg))	>10	>11	0	0	> 3	> 3	–	–	–	–	–	–	–
C=CCOC(=O)c1c(Br)nnn1[C@H](C)c1ccccc1 [Compound B108]	B (B indicates that the measured ED50 is in the range of 0.50-1.00 mg/kg (excluding 0.50 mg/kg, including 1.00 mg/kg))	>20	>14	0	0	> 3	> 3	–	–	–	–	–	–	–
C[C@H](c1ccccc1)n1nnc(Br)c1C(=O)OC(C)(C)C [Compound B110]	D (D indicates that the measured ED50 is in the range of 2.00-10.00 mg/kg (excluding 2.00 mg/kg, including 10.00 mg/kg))	>7	>16	0	0	> 3	> 3	–	–	–	–	–	–	–
CC(C)OC(=O)c1c(Br)nnn1[C@H](C)c1ccccc1 [Compound B115]	–	>25	>18	0	0	–	–	0.5 to 1	> 3	> 3	–	–	–	–
C[C@H](c1ccccc1)n1cncc1C(=O)O [Etomidate acid, etomidate acid, reference compound]	–	–	–	0	0	> 10	> 10	–	–	–	0	0	> 10	> 10
